Laboratory results from ChEMBL document CHEMBL5154709, “Tetrazole derivatives bearing benzodiazepine moiety-synthesis and action mode against virulence of Candida albicans” (Eur J Med Chem, 2022).
Values after ≈ are worked out from the molar mass of the structure shown. Active and inactive are the calls of the source. The rule behind the calls is not given here.

Assays:
Candida albicans [1] = assay: In vivo antifungal activity against Candida albicans SC5314 infected in Galleria mellonella larvae assessed as survival of larvae by measuring health score index at 16 ug/ml administered 1 hr prior to infection measured within 5 days by Hematoxylin and eosin staining; type: functional, organism-based; settings: dose 16.0 µg/ml, time 5.0 day
Vero = assay: Cytotoxicity against African green monkey Vero cells at > 64 ug/ml measured after 24 hrs by XTT assay; type: toxicity, cell-based; settings: chlorocebus sabaeus, dose > 64 µg/ml
[2] = Cytotoxicity against human TR146 cells at more than 64 ug/ml measured after 24 hrs by XTT assay; type: toxicity, cell-based; settings: tr146, 24 h, dose 64 µg/ml
Candida albicans [3] = assay: Antifungal activity against Candida albicans SC5314 assessed as inhibition of fungal growth at 8 ug/ml incubated for 18 hrs by M27-A3 based microdilution method relative to control; type: functional
Candida albicans [4] = assay: Antifungal activity against Candida albicans SC5314 assessed as inhibition of fungal growth at 16 ug/ml incubated for 18 hrs by M27-A3 based microdilution method relative to control; type: functional
Candida albicans [5] = assay: Fungicidal activity against Candida albicans SC5314 assessed as inhibition of fungal growth incubated for 48 hrs by M27-A3 based microdilution method; type: functional
Candida albicans [6] = assay: Antifungal activity against Candida albicans SC5314 assessed as inhibition of fungal growth at 4 ug/ml incubated for 18 hrs by M27-A3 based microdilution method relative to control; type: functional
Candida albicans [7] = assay: Inhibition of ergosterol biosynthesis in Candida albicans SC5314 assessed as reduction in ergosterol level incubated for 18 hrs by spectrophotometric analysis; type: functional; settings: dose 0.06-32 µg/ml, DDE = dose-dependent effect
Candida albicans [8] = assay: Antifungal activity against Candida albicans SC5314 assessed as inhibition of fungal growth at 2 ug/ml incubated for 48 hrs by M27-A3 based microdilution method relative to control; type: functional
Candida albicans [9] = assay: Induction of cell cycle arrest in Candida albicans SC5314 assessed as accumulation of cells in G0/G1 phase at 16 ug/ml incubated fro 18 hrs by PI staining based flow cytometry method; type: functional, organism-based; settings: dose 16.0 µg/ml
Candida albicans [10] = assay: Antifungal activity against Candida albicans assessed as inhibition of fungal growth measured after 48 hrs by M27-A3 based broth microdilution; type: functional
Candida albicans [11] = assay: Effect on HSP90 expression in Candida albicans cnb1delta/CNB1 mutant assessed as fold increase in relative expression of HSP90 gene level at 2 ug/ml incubated for 18 hrs in presence of calcium chloride by RT-PCR analysis; type: functional; settings: dose 2.0 µg/ml
Candida albicans [12] = assay: Induction of macrophage-mediated Candida albicans SC5314 phagocytosis assessed as change in chitin at 16 ug/ml incubated for 18 hrs in presence of mouse RAW264.7 macrophages by PI/Acridine orange double staining based confocal laser scanning microscopic analysis; type: functional; settings: dose 16.0 µg/ml
Candida albicans [13] = assay: In vivo antifungal activity against Candida albicans SC5314 infected in Galleria mellonella larvae assessed as survival of larvae by measuring health score index at 16 ug/ml administered 1 hr post infection measured within 5 days by Hematoxylin and eosin staining; type: functional, organism-based; settings: dose 16.0 µg/ml, time 5.0 day
Candida albicans [14] = assay: Effect on HSP90 expression in Candida albicans BWP17 assessed as fold increase in relative expression of HSP90 gene level at 2 ug/ml incubated for 18 hrs in presence of calcium chloride by RT-PCR analysis; type: functional; settings: dose 2.0 µg/ml
Candida albicans [15] = assay: Induction of apoptosis in Candida albicans SC5314 non-protoplast cells assessed as necrotic cells at 16 ug/ml incubated for 18 hrs by PI/Annexin V staining based flow cytometry assay; type: functional; settings: dose 16 µg/ml
Candida albicans [16] = assay: Antifungal activity against Candida albicans SC5314 assessed as inhibition of fungal growth at 0.5 ug/ml incubated for 18 hrs by M27-A3 based microdilution method relative to control; type: functional
Candida albicans [17] = assay: Antifungal against Candida albicans SC5314 biofilm co-cultured with African green monkey Vero cells assessed as accidental cell death in pseudohyphal cells by measuring orange fluorescence emission at 16 ug/ml incubated for 18 hrs by PI/acridine orange double staining based confocal laser scanning microscopic analysis; type: functional, organism-based; settings: dose 16.0 µg/ml
Candida albicans [18] = assay: Antifungal activity against Candida albicans SC5314 assessed as inhibition of fungal growth at 0.125 ug/ml incubated for 48 hrs by M27-A3 based microdilution method relative to control; type: functional
Candida albicans [19] = assay: Effect on HSP90 expression in Candida albicans cnb1delta/CNB1 mutant assessed as decrease in relative expression of HSP90 gene level at 2 ug/ml incubated for 18 hrs by RT-PCR analysis; type: functional; settings: dose 2.0 µg/ml
Candida albicans [20] = assay: Effect on HSP90 expression in Candida albicans cnb1delta/cnb1delta mutant assessed as decrease in relative expression of HSP90 gene level at 2 ug/ml incubated for 18 hrs by RT-PCR analysis; type: functional; settings: dose 2.0 µg/ml
Candida albicans [21] = assay: Antifungal against Candida albicans SC5314 biofilm co-cultured with African green monkey Vero cells assessed as lysosomal membrane permeabilization at 16 ug/ml incubated for 18 hrs by PI/acridine orange double staining based confocal laser scanning microscopic analysis; type: functional, organism-based; settings: dose 16.0 µg/ml
Candida albicans [22] = assay: Induction of reactive oxygen species generation in Candida albicans cnb1delta/cnb1delta mutant assessed as increase in ROS level at 16 ug/ml incubated for 18 hrs by DCFH-DA staining based flow cytometric analysis (reference value: 4.7+/- 5.9%); type: functional; settings: dose 16 µg/ml
Candida albicans [23] = assay: Antifungal activity against Candida albicans SC5314 assessed as inhibition of fungal growth at 1 ug/ml incubated for 18 hrs by M27-A3 based microdilution method relative to control; type: functional
Candida albicans [24] = assay: Antifungal activity against Candida albicans SC5314 assessed as inhibition of fungal growth at 0.03125 ug/ml incubated for 18 hrs by M27-A3 based microdilution method relative to control; type: functional
Candida albicans [25] = assay: Antifungal activity against Candida albicans SC5314 assessed as inhibition of fungal growth at 0.125 ug/ml incubated for 18 hrs by M27-A3 based microdilution method relative to control; type: functional
Candida albicans [26] = assay: Downregulation of HSP90 gene expression in Candida albicans cnb1delta/CNB1 mutant at 2 ug/ml incubated for 6 hrs in presence of calcium chloride by RT-PCR analysis; type: functional; settings: dose 2.0 µg/ml
Candida albicans [27] = assay: Antifungal activity against Candida albicans SC5314 assessed as inhibition of fungal growth at 0.5 ug/ml incubated for 48 hrs by M27-A3 based microdilution method relative to control; type: functional
Candida albicans [28] = assay: In vivo antifungal activity against Candida albicans SC5314 infected in Galleria mellonella larvae assessed as prevention of candidiasis at 16 ug/ml administered 1 hr post infection measured after 5 days by Hematoxylin and eosin staining; type: functional, organism-based; settings: dose 16.0 µg/ml, time 5.0 day
[29] = Toxicity in Galleria mellonella larvae assessed as melanization of larvae at 16 ug/ml measured every 24 hrs upto 5 days relative to control; settings: 120 h, at 16 µg/mL, time < 5 day
Candida tropicalis = assay: Inhibition of ergosterol biosynthesis in Candida tropicalis C129 assessed as reduction in ergosterol level incubated for 18 hrs by spectrophotometric analysis; type: functional; settings: dose 0.06-32 µg/ml, DDE = dose-dependent effect
Candida albicans [30] = assay: Antifungal activity against Candida albicans SC5314 assessed as inhibition of fungal growth at 0.25 ug/ml incubated for 48 hrs by M27-A3 based microdilution method relative to control; type: functional
Candida albicans [31] = assay: Induction of reactive oxygen species generation in Candida albicans SC5314 assessed as increase in ROS level at 16 ug/ml incubated for 18 hrs by DCFH-DA staining based flow cytometric analysis (reference value: 0.77+/- 0.4%); type: functional; settings: dose 16 µg/ml

With O=C1CN=C(c2ccccc2Br)c2cc(F)ccc2N1CCCn1nnc(-c2ccccc2Cl)n1 the Activity (Candida albicans [1]) was “Active”, the Activity (Vero) was “Toxic” and the Activity [2] was “Non-Toxic”. For the same compound, the inhibition at 8 µg/mL (Candida albicans [3]) was 99.1%, the inhibition at 16 µg/mL (Candida albicans [4]) was 100% and the “inhibition (INH)” value (Candida albicans [5]) was 99.6%. The inhibition at 4 µg/mL (Candida albicans [6]) was 99.3%, the Activity (Candida albicans [7]) was “Dde” and the inhibition at 2 µg/mL (Candida albicans [8]) was 100%. For the same compound, the Activity (Candida albicans [9]) was “Active”, the MIC (Candida albicans [10]) was 64 µg/mL (≈ 116 µM) and the fold change (FC) (Candida albicans [11]) was 4. The Activity (Candida albicans [12]) was “Active”, the Activity (Candida albicans [13]) was “Active” and the fold change (FC) (Candida albicans [14]) was 4. For the same compound, the Activity (Candida albicans [15]) was 81.37%, the inhibition at 0.5 µg/mL (Candida albicans [16]) was 99.2% and the Activity (Candida albicans [17]) was “Active”. For the same compound, the inhibition at 0.125 µg/mL (Candida albicans [18]) was 99.3%, the Activity (Candida albicans [19]) was “Active” and the Activity (Candida albicans [20]) was “Active”. The Activity (Candida albicans [21]) was “Active”, the Activity (Candida albicans [22]) was 2.95% and the inhibition at 1 µg/mL (Candida albicans [23]) was 99.1%. The inhibition at 0.03125 µg/mL (Candida albicans [24]) was 100%, the inhibition at 0.125 µg/mL (Candida albicans [25]) was 99.3% and the Activity (Candida albicans [26]) was “Active”. For the same compound, the inhibition at 0.5 µg/mL (Candida albicans [27]) was 99.3%, the Activity (Candida albicans [28]) was “Active” and the Activity [29] was 7%. The Activity (Candida tropicalis) was “Dde”, the inhibition at 0.25 µg/mL (Candida albicans [30]) was 100% and the Activity (Candida albicans [31]) was 24.4%.
